Test results as given in the kinase profiling compilation of Christmann-Franck et al. (2016).

Columns and labels:
Test in all cases: radiometric filter-binding kinase assay, Kinase HotSpot
Conditions in all cases: compound 0.5 µM; ATP 10 µM
AKT2 (human) = AKT2 (human) (UniProt P31751)
AURKB (human) = AURKB (human) (UniProt Q96GD4)
AXL (human) = AXL (human) (UniProt P30530)
CAMK4 (human) = CAMK4 (human) (UniProt Q16566)
CDK1 CCNA2 (human) = CDK1 CCNA2 (human) (UniProt P06493+P20248)
CDK9 CCNT1 (human) = CDK9 CCNT1 (human) (UniProt P50750+O60563)
CSNK1A1 (human) = CSNK1A1 (human) (UniProt P48729)
CSNK1G3 (human) = CSNK1G3 (human) (UniProt Q9Y6M4)
DYRK3 (human) = DYRK3 (human) (UniProt O43781)
EPHA4 (human) = EPHA4 (human) (UniProt P54764)
EPHB1 (human) = EPHB1 (human) (UniProt P54762)
Sequence of EPHB1 (human) (P54762 whole entry, looked up): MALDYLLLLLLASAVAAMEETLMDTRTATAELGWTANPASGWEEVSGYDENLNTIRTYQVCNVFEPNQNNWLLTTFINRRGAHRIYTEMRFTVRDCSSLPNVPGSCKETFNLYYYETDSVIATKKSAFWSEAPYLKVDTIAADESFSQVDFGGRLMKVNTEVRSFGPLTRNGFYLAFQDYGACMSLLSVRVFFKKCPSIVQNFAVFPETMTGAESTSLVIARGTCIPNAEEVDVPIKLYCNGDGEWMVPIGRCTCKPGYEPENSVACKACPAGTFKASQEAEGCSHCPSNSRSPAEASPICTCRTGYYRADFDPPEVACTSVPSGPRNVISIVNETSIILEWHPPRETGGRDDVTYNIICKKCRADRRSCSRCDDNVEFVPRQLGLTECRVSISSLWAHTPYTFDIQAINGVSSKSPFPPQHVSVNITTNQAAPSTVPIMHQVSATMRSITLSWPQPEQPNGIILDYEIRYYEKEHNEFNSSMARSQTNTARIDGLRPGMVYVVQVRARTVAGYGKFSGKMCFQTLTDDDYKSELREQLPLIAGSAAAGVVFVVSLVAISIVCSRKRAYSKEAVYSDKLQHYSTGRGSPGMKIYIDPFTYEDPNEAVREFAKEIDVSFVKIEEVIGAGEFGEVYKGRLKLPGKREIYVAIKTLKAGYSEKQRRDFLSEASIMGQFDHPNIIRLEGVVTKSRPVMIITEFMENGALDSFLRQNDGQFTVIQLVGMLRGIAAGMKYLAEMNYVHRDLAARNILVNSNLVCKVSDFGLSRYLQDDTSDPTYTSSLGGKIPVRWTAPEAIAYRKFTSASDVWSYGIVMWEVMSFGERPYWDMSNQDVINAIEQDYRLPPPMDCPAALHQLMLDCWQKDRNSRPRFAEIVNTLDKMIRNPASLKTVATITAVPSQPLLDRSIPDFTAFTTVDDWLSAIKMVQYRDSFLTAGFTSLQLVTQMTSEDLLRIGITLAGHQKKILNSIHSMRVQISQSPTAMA

ERBB2 (human) = ERBB2 (human) (UniProt P04626)
Sequence of ERBB2 (human) (P04626 whole entry, looked up): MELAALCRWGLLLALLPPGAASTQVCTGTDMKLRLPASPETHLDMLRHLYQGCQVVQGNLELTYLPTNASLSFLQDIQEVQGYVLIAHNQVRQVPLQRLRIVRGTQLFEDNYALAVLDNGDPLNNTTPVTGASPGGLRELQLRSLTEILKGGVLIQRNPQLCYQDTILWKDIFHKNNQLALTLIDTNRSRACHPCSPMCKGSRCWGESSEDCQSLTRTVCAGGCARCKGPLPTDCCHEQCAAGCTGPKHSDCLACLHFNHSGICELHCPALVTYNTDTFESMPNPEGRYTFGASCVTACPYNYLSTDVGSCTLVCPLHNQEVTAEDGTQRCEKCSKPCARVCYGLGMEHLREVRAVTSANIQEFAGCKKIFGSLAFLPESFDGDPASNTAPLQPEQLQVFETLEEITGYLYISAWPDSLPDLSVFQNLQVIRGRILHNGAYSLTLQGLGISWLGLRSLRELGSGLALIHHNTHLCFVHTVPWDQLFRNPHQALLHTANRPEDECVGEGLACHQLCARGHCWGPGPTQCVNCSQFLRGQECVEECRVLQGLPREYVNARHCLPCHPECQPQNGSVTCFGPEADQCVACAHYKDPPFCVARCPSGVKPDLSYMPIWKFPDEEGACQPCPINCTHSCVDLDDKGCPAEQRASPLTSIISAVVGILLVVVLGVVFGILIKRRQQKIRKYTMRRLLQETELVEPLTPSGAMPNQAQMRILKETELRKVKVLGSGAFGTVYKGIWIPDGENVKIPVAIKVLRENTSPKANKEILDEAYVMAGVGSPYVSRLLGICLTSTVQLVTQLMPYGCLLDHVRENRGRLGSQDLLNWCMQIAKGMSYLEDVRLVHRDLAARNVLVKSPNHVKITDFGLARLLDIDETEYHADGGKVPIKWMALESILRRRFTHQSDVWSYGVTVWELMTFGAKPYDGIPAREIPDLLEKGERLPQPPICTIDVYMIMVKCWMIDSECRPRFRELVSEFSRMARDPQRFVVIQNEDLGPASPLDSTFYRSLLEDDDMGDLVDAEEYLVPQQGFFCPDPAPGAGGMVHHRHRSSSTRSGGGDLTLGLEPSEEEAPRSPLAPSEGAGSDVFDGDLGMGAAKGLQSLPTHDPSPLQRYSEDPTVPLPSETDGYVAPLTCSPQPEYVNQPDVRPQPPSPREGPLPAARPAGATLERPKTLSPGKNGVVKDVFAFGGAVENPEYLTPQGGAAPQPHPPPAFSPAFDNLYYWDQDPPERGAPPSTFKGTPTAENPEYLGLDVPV

FER (human) = FER (human) (UniProt P16591)
HIPK1 (human) = HIPK1 (human) (UniProt Q86Z02)
HIPK3 (human) = HIPK3 (human) (UniProt Q9H422)
IRAK1 (human) = IRAK1 (human) (UniProt P51617)
[1] = target: JAK1 JH1 catalytic (human) (UniProt P23458)
JAK3 JH1 JH2 (human) = JAK3 JH1 JH2 (human) (UniProt P52333)
MAP3K10 (human) = MAP3K10 (human) (UniProt Q02779)
MAPK13 (human) = MAPK13 (human) (UniProt O15264)
MAPK8 (human) = MAPK8 (human) (UniProt P45983)
MARK1 (human) = MARK1 (human) (UniProt Q9P0L2)
MINK1 (human) = MINK1 (human) (UniProt Q8N4C8)
Sequence of MINK1 (human) (Q8N4C8 whole entry, looked up): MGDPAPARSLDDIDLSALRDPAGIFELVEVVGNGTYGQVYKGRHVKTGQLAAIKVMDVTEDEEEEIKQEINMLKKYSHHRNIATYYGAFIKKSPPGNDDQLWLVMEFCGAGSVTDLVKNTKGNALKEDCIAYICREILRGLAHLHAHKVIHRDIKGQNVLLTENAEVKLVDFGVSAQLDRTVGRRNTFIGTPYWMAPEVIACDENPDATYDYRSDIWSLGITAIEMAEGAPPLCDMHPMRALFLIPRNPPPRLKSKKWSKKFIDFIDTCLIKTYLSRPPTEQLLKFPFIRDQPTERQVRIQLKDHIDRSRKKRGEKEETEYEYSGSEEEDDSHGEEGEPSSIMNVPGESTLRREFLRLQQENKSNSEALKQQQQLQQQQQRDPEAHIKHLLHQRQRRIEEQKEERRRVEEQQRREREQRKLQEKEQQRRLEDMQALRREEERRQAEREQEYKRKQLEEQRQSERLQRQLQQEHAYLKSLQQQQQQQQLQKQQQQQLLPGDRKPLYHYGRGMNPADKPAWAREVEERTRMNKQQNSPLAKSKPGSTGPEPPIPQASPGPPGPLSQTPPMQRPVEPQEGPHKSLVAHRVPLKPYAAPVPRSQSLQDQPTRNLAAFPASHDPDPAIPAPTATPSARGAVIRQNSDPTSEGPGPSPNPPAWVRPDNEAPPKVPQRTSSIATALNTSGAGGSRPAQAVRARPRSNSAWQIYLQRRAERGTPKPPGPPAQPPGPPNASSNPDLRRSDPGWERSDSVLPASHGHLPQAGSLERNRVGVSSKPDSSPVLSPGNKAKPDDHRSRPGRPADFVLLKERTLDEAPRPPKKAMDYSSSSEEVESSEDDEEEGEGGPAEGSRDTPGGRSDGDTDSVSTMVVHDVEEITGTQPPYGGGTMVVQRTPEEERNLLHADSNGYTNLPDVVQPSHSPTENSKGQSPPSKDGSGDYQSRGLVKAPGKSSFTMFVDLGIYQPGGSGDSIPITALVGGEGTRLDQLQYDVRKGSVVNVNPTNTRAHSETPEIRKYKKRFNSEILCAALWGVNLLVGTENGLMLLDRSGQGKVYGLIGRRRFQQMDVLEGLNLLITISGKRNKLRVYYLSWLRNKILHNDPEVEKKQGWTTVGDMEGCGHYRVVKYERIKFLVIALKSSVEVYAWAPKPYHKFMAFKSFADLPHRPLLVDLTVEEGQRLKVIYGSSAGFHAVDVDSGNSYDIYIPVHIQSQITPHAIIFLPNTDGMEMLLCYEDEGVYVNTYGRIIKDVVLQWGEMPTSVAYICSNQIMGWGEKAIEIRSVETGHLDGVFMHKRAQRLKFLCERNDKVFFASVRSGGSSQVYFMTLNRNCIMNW

MST4 (human) = MST4 (human) (UniProt Q9P289)
Sequence of MST4 (human) (Q9P289 whole entry, looked up): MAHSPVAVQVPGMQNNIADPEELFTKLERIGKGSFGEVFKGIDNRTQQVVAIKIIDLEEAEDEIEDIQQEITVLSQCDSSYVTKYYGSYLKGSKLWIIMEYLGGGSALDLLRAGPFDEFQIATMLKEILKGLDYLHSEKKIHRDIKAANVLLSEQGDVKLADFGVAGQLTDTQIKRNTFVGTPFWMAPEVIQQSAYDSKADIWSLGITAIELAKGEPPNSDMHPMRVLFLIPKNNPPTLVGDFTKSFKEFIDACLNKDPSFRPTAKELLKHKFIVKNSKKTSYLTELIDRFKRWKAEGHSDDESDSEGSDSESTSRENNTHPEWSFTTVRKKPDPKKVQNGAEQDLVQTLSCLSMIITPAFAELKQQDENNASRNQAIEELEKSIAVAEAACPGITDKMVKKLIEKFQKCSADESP

NEK7 (human) = NEK7 (human) (UniProt Q8TDX7)
OXSR1 (human) = OXSR1 (human) (UniProt O95747)
PAK1 (human) = PAK1 (human) (UniProt Q13153)
PAK4 (human) = PAK4 (human) (UniProt O96013)
PDGFRA (human) = PDGFRA (human) (UniProt P16234)
PDPK1 (human) = PDPK1 (human) (UniProt O15530)
Sequence of PDPK1 (human) (O15530 whole entry, looked up): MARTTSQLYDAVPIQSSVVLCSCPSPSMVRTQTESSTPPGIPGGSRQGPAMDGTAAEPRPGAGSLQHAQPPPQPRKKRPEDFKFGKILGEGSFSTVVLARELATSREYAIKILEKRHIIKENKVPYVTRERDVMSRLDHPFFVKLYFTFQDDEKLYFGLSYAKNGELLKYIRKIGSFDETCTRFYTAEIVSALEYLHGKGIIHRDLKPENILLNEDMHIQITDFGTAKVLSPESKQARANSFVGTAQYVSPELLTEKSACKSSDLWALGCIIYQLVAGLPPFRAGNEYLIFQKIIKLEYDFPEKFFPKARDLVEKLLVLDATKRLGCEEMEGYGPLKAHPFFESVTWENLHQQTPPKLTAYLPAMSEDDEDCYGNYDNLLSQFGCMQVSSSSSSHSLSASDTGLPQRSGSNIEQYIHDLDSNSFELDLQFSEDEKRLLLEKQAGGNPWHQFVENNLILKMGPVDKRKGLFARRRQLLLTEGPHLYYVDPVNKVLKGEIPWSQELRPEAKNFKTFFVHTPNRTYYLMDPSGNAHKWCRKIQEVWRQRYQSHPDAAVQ

PHKG2 (human) = PHKG2 (human) (UniProt P15735)
PIM2 (human) = PIM2 (human) (UniProt Q9P1W9)
PLK1 (human) = PLK1 (human) (UniProt P53350)
PLK2 (human) = PLK2 (human) (UniProt Q9NYY3)
PRKCB1 (human) = PRKCB1 (human) (UniProt P05771)
PRKCZ (human) = PRKCZ (human) (UniProt Q05513)
RET (human) = RET (human) (UniProt P07949)
RIPK2 (human) = RIPK2 (human) (UniProt O43353)
Sequence of RIPK2 (human) (O43353 whole entry, looked up): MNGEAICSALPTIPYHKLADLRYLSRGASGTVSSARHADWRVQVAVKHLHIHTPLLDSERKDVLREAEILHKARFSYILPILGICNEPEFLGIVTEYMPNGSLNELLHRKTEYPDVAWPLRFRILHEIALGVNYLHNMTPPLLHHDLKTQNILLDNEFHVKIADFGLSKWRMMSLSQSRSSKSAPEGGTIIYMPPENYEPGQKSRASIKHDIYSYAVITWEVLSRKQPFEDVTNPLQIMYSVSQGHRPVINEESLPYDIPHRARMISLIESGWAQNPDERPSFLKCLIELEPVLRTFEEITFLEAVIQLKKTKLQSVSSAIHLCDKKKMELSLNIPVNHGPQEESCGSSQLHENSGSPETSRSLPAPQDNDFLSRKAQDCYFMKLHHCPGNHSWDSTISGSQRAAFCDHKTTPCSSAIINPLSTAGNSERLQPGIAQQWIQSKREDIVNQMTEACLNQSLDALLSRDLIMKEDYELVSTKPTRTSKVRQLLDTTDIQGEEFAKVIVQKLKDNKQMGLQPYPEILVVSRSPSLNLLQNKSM

SRMS (human) = SRMS (human) (UniProt Q9H3Y6)
STK11 (human) = STK11 (human) (UniProt Q15831)
STK24 (human) = STK24 (human) (UniProt Q9Y6E0)
MAPKAPK5 (human) = MAPKAPK5 (human) (UniProt Q8IW41)

SMILES: CC(C)c1nn(-c2c(Cl)cccc2Cl)c2nc(Cc3ccc(OCCO)cc3)nc(O)c12
- residual activity (AKT2 (human)): 92.4%
- residual activity (AURKB (human)): 104%
- residual activity (AXL (human)): 98%
- residual activity (CAMK4 (human)): 102%
- residual activity (CDK1 CCNA2 (human)): 7.71%
- residual activity (CDK9 CCNT1 (human)): 22.7%
- residual activity (CSNK1A1 (human)): 99%
- residual activity (CSNK1G3 (human)): 95.7%
- residual activity (DYRK3 (human)): 99%
- residual activity (EPHA4 (human)): 102%
- residual activity (EPHB1 (human)): 91.3%
- residual activity (ERBB2 (human)): 101%
- residual activity (FER (human)): 89.4%
- residual activity (HIPK1 (human)): 102%
- residual activity (HIPK3 (human)): 99%
- residual activity (IRAK1 (human)): 99.2%
- residual activity [1]: 101%
- residual activity (JAK3 JH1 JH2 (human)): 103%
- residual activity (MAP3K10 (human)): 90.3%
- residual activity (MAPK13 (human)): 104%
- residual activity (MAPK8 (human)): 95.4%
- residual activity (MARK1 (human)): 93.3%
- residual activity (MINK1 (human)): 97.1%
- residual activity (MST4 (human)): 46.8%
- residual activity (NEK7 (human)): 94%
- residual activity (OXSR1 (human)): 93.8%
- residual activity (PAK1 (human)): 89.7%
- residual activity (PAK4 (human)): 106%
- residual activity (PDGFRA (human)): 91.6%
- residual activity (PDPK1 (human)): 94.9%
- residual activity (PHKG2 (human)): 102%
- residual activity (PIM2 (human)): 104%
- residual activity (PLK1 (human)): 93.9%
- residual activity (PLK2 (human)): 99.8%
- residual activity (PRKCB1 (human)): 101%
- residual activity (PRKCZ (human)): 96.9%
- residual activity (RET (human)): 97.5%
- residual activity (RIPK2 (human)): 89.3%
- residual activity (SRMS (human)): 91.5%
- residual activity (STK11 (human)): 47.7%
- residual activity (STK24 (human)): 47.9%

SMILES: O=C1Cc2c([nH]c3ccc(Br)cc23)-c2ccccc2N1
- residual activity (AKT2 (human)): 104%
- residual activity (AURKB (human)): 84.3%
- residual activity (AXL (human)): 101%
- residual activity (CAMK4 (human)): 98.1%
- residual activity (CDK1 CCNA2 (human)): 88.5%
- residual activity (CDK9 CCNT1 (human)): 31.3%
- residual activity (CSNK1A1 (human)): 95.1%
- residual activity (CSNK1G3 (human)): 103%
- residual activity (DYRK3 (human)): 113%
- residual activity (EPHA4 (human)): 96.1%
- residual activity (EPHB1 (human)): 93.5%
- residual activity (ERBB2 (human)): 103%
- residual activity (FER (human)): 89.7%
- residual activity (HIPK3 (human)): 109%
- residual activity (IRAK1 (human)): 98.6%
- residual activity [1]: 102%
- residual activity (JAK3 JH1 JH2 (human)): 103%
- residual activity (MAP3K10 (human)): 79.3%
- residual activity (MAPK13 (human)): 103%
- residual activity (MAPK8 (human)): 87.5%
- residual activity (MAPKAPK5 (human)): 94.6%
- residual activity (MARK1 (human)): 88.3%
- residual activity (MINK1 (human)): 29.6%
- residual activity (MST4 (human)): 108%
- residual activity (NEK7 (human)): 94.3%
- residual activity (OXSR1 (human)): 107%
- residual activity (PAK1 (human)): 85%
- residual activity (PAK4 (human)): 92.2%
- residual activity (PDGFRA (human)): 103%
- residual activity (PDPK1 (human)): 94.9%
- residual activity (PHKG2 (human)): 98.9%
- residual activity (PIM2 (human)): 104%
- residual activity (PLK1 (human)): 94.9%
- residual activity (PLK2 (human)): 99.1%
- residual activity (PRKCB1 (human)): 93.1%
- residual activity (PRKCZ (human)): 98.3%
- residual activity (RET (human)): 102%
- residual activity (RIPK2 (human)): 75.9%
- residual activity (SRMS (human)): 105%
- residual activity (STK11 (human)): 95.7%
- residual activity (STK24 (human)): 84.8%

SMILES: O=C1NC(=O)/C(=C\c2ccc3nccnc3c2)S1
- residual activity (AKT2 (human)): 101%
- residual activity (AURKB (human)): 101%
- residual activity (AXL (human)): 112%
- residual activity (CAMK4 (human)): 106%
- residual activity (CDK1 CCNA2 (human)): 90.7%
- residual activity (CDK9 CCNT1 (human)): 87.7%
- residual activity (CSNK1A1 (human)): 89.2%
- residual activity (CSNK1G3 (human)): 79.9%
- residual activity (DYRK3 (human)): 71.5%
- residual activity (EPHA4 (human)): 96%
- residual activity (EPHB1 (human)): 93.4%
- residual activity (ERBB2 (human)): 107%
- residual activity (FER (human)): 96.2%
- residual activity (HIPK1 (human)): 104%
- residual activity (HIPK3 (human)): 92.4%
- residual activity (IRAK1 (human)): 85.5%
- residual activity [1]: 103%
- residual activity (JAK3 JH1 JH2 (human)): 97.2%
- residual activity (MAP3K10 (human)): 94.2%
- residual activity (MAPK13 (human)): 99.1%
- residual activity (MAPK8 (human)): 91.5%
- residual activity (MARK1 (human)): 96.2%
- residual activity (MINK1 (human)): 88.3%
- residual activity (MST4 (human)): 91%
- residual activity (NEK7 (human)): 105%
- residual activity (OXSR1 (human)): 98.4%
- residual activity (PAK1 (human)): 96%
- residual activity (PAK4 (human)): 88.5%
- residual activity (PDGFRA (human)): 106%
- residual activity (PDPK1 (human)): 104%
- residual activity (PHKG2 (human)): 97.4%
- residual activity (PIM2 (human)): 100%
- residual activity (PLK1 (human)): 100%
- residual activity (PLK2 (human)): 95.7%
- residual activity (PRKCB1 (human)): 96.9%
- residual activity (PRKCZ (human)): 103%
- residual activity (RET (human)): 97.7%
- residual activity (RIPK2 (human)): 76.8%
- residual activity (SRMS (human)): 96.6%
- residual activity (STK11 (human)): 96.6%
- residual activity (STK24 (human)): 93.2%

SMILES: Nc1nnc2[nH]c3ccccc3nc1-2
- residual activity (AKT2 (human)): 90.1%
- residual activity (AURKB (human)): 101%
- residual activity (AXL (human)): 91.3%
- residual activity (CAMK4 (human)): 104%
- residual activity (CDK1 CCNA2 (human)): 95.3%
- residual activity (CDK9 CCNT1 (human)): 81.6%
- residual activity (CSNK1A1 (human)): 101%
- residual activity (CSNK1G3 (human)): 95.6%
- residual activity (DYRK3 (human)): 102%
- residual activity (EPHA4 (human)): 86.5%
- residual activity (EPHB1 (human)): 92.3%
- residual activity (ERBB2 (human)): 95.2%
- residual activity (FER (human)): 94.4%
- residual activity (HIPK3 (human)): 97.4%
- residual activity (IRAK1 (human)): 88.9%
- residual activity [1]: 99.8%
- residual activity (JAK3 JH1 JH2 (human)): 68%
- residual activity (MAP3K10 (human)): 93.1%
- residual activity (MAPK13 (human)): 101%
- residual activity (MAPK8 (human)): 89.6%
- residual activity (MAPKAPK5 (human)): 82.7%
- residual activity (MARK1 (human)): 95.7%
- residual activity (MINK1 (human)): 97.9%
- residual activity (MST4 (human)): 91.2%
- residual activity (NEK7 (human)): 93.1%
- residual activity (OXSR1 (human)): 92.7%
- residual activity (PAK1 (human)): 97.1%
- residual activity (PAK4 (human)): 104%
- residual activity (PDGFRA (human)): 103%
- residual activity (PDPK1 (human)): 96.8%
- residual activity (PHKG2 (human)): 96.6%
- residual activity (PIM2 (human)): 105%
- residual activity (PLK1 (human)): 94.5%
- residual activity (PLK2 (human)): 101%
- residual activity (PRKCB1 (human)): 103%
- residual activity (PRKCZ (human)): 106%
- residual activity (RET (human)): 97.1%
- residual activity (RIPK2 (human)): 81.1%
- residual activity (SRMS (human)): 88.5%
- residual activity (STK11 (human)): 85.7%
- residual activity (STK24 (human)): 89.1%

SMILES: O=C1NC(=O)C(c2cn(CCCO)c3ncccc23)=C1c1cnccn1
- residual activity (AKT2 (human)): 114%
- residual activity (AURKB (human)): 101%
- residual activity (AXL (human)): 104%
- residual activity (CAMK4 (human)): 95.6%
- residual activity (CDK1 CCNA2 (human)): 91.8%
- residual activity (CDK9 CCNT1 (human)): 88.3%
- residual activity (CSNK1A1 (human)): 67%
- residual activity (CSNK1G3 (human)): 107%
- residual activity (DYRK3 (human)): 79.6%
- residual activity (EPHA4 (human)): 99.5%
- residual activity (ERBB2 (human)): 106%
- residual activity (FER (human)): 99.2%
- residual activity (HIPK1 (human)): 84.2%
- residual activity (HIPK3 (human)): 89.2%
- residual activity (IRAK1 (human)): 76.6%
- residual activity [1]: 117%
- residual activity (JAK3 JH1 JH2 (human)): 134%
- residual activity (MAP3K10 (human)): 91.3%
- residual activity (MAPK13 (human)): 96.5%
- residual activity (MAPK8 (human)): 99.6%
- residual activity (MAPKAPK5 (human)): 98.6%
- residual activity (MARK1 (human)): 95%
- residual activity (MINK1 (human)): 84.8%
- residual activity (MST4 (human)): 78.7%
- residual activity (NEK7 (human)): 95.4%
- residual activity (OXSR1 (human)): 101%
- residual activity (PAK1 (human)): 101%
- residual activity (PAK4 (human)): 111%
- residual activity (PDGFRA (human)): 113%
- residual activity (PDPK1 (human)): 92.2%
- residual activity (PHKG2 (human)): 102%
- residual activity (PIM2 (human)): 92.7%
- residual activity (PLK1 (human)): 103%
- residual activity (PLK2 (human)): 104%
- residual activity (PRKCZ (human)): 88.5%
- residual activity (RET (human)): 54.5%
- residual activity (RIPK2 (human)): 90.9%
- residual activity (SRMS (human)): 95.9%
- residual activity (STK11 (human)): 83.1%
- residual activity (STK24 (human)): 72.1%
